Like-named read-outs stand apart in the source and are kept apart here.
Legend:
[1] = tested on: flies expressing G12V in their wing; experiment: Fly assay, wing phenotype reversal; format: in vivo, Drosophila
Excerpt: Each wing from mutant flies receiving treatment with either water or compound received a score from two independent scorers according to the scheme outlined in the schematic. The analysis of the scores given to the compound group was compared to the scores given for the control (water) group.
Embryo preparation. GAL4 virgin ♀ were collected over a period of 3-5 days, then crossed with kRAS G12V (3M) ♂ inside a plastic condo supplied with grape agar containing yeast paste. Flies were acclimated for 2 days and embryos present after a span of 4-5 hours were collected along with the agar plate and incubated for 24 hours. The next day, embryos were washed off the agar plate with Embryo Wash solution (120 mM NaCl, 0.03% Triton X) and resuspended in Embryo Inoculation solution (120 mM NaCl, 420 mM Sucrose, 0.05% Triton X-100). Embryos were counted and diluted to 15 embryos/10 μL. 150 embryos (100 μL) were dispensed into each vial.
Food-drug admix preparation. Each fly vial contains 1.5 g of fly food in 4 ml water. The quantity of drug needed is calculated for a total of 4 vials, each vial containing 10 μM of Structure 2. This is equivalent to 0.014 mg of Structure 2/vial, for a total of 0.056 mg of Structure 2.
A stock solution of 0.1 mg/mL Structure 2 in ethanol is prepared. A 500-ml round bottom flask is charged with 6 g of fly food (1.5 g×4), to which is added 20 mL of ethanol, ensuring that the food is entirely covered in solvent. To this heterogeneous solution is added an appropriate amount of Structure 2 stock solution, containing the calculated required quantity, in this case 0.56 mL stock solution.
The ethanol is evaporated under reduced pressure via a rotary evaporator equipped with a bump trap. The resulting dry food is added to three vials, each containing 1.5 g, so that the experiment is performed in triplicate. The quantity is calculated initially for 4 vials, because some food will be stuck to the walls of the round bottom flask and some is also invariably lost in the bump trap during the solvent evaporation step. Control vials lacking Structure 2 or Structure 3 are also analyzed and undergo the exact same food preparation and solvent extraction procedure.
Embryo addition to vials. After all the food-drug admix is prepared and added to the respective vials, to each vial is added 4 mL of water and the vial briefly vortexed. To this liquid mixture is added the embryo solution (100 μL), the vials capped and placed in an incubator or fly room.
Wing mounting and scoring. Flies hatch 10-12 days after the above experimental setup is performed. The resulting adult flies are submerged in a 3:1 70% ethanol:glycerol solution for 24 hours, then wings are dissected with curved Vannas spring scissors (FST #15001-08). The wings are mounted in an 80% glycerol solution on a microscope slide under coverslip seal.
Pictures of the wings were taken using an Accu-Scope microscope equipped with a digital camera and connected to a laptop containing the Accu-Scope Micrometric SE Premium software. The wings were scored according to the following scoring tree:
Wing score analysis. After each wing received a score from two independent scorers, the analysis of the scores given to the Structure 2 and 3 groups was compared to the scores given for the control group and was performed using the IBM SPSS software.
Wings that received a score of 3 or above are considered “reversed”, since their phenotype is closer to WT than to kRAS G12V bearing Drosophila. The findings are plotted in FIG. 9. […]

[2] = Multi-day safety study in mice; format: in vivo; conditions: female CD1 mice, 10 mg/kg ip daily for 6 days
Protocol: The multi-day safety study used female, 10 week old, CD1 mice (4/treatment group) dosed with DMSO. Mice were administered 2 mg/kg of Structure 2 or 10 mg/kg Structure 3, ip, daily for 6 days and evaluated for changes clinical chemistry values, hematology values and animal weight as well as signs of health and grooming habits.
Heparinized blood samples were obtained by retro-orbital puncture on Day 6, 12 hours after the last dose of Structure 2. The plasma harvested from the blood was analyzed for standard clinical chemistry parameters (ALB. ALP, ALT, AMY, TBIL, BUN, CA, PHOS, CRE GLU, NA, K, TP & GLOB) and hematology (WBC, LYM, MON, GRA, RBC, HGB, HCT, MCV, MCH, MCHC, RDWc, PLT, PCT, MPV, PDWc) analytes (see definitions herein). Animal weight changes were also monitored. Values for all analytes were analyzed by one way ANOVA plus post-hoc Bonferroni using SPSS (IBM, Armonk, NY).

[3] = Pharmacokinetic study in mice; format: in vivo; conditions: ip, 10 mg/kg, CD-1 mice, 10 mg/kg; for Vd/F: CD-1, mouse, read-out: Vz/F
Protocol: Pharmacokinetic studies were carried out using 10 weeks old CD-1 mice. Structure 2 and Structure 3 were injected ip, 3 mg/kg and 10 mg/kg, respectively, at 8 time points (0, 0.25, 0.5, 1, 2, 4, 8 and 24 hours post-dose). Blood was collected from 3 animals/time point and concentrations of Structure 2 in plasma determined using LC/MS.

[4] = tested on: phosphorylated ERK 1/2 (T202/Y204); experiment: Phosphorylated ERK bioassay (Western blot, SW480 cells); format: cell-based, human; conditions: 3 μM, 24 hours, in the presence of serum
Protocol: As described herein, the main downstream target for kRAS is ERK (Samatar et al., Targeting RAS-ERK signaling in cancer: promises and challenges. Nat Rev Drug Discov. 2014; 13:928-42). kRAS activates ERK leading to phosphorylated ERK. A compound that suppresses kRAS activity is expected to lower phosphorylated ERK.
Test articles abrogate the expression of phosphorylated ERK (T202/Y204) SW480 cells were subjected to test article incubation at 3 μM for 24 hours in the presence of serum to mimic natural growth environment. Cells were extracted and total protein of samples normalized through BCA assay. Processed extracts were subjected to SDS-PAGE/Western blot and blotted for phosphorylated ERK 1/2 (T202/Y204); ERK 1/2; and α-Tubulin.
The compound U0126 in FIG. 8 is a MEK inhibitor which is known to suppress phosphorylation of ERK. The compound was tested along with the test articles to serve as a positive control.

With `c1ccc(-n2cc(CN3CCN(c4ncnc5ccccc45)CC3)cn2)cc1` [Structure 3, 4-(4-((1-phenyl-1H-pyrazol-4-yl)methyl)piperazin-1-yl)quinazoline] the “wing scores compared to the control group” value ([1]; Tukey HSD and LSD p<0.001, Mann Whitney p=0.002) was “significantly different from the control group”, the “Reversal Phenotype (%)” value ([1]; wings with score of 3 or above, Structure 2 at 10 μmolar, control 8.27) was 16% and the “body weight or grooming habits versus dosing vehicle treated animals” value [2] was “no statistically significant difference”. The “clinical chemistry changes versus dosing vehicle treated animals” value [2] was “no significant clinical chemistry changes”, the ALB ([2]; Day 6) was 4.0 ± 0.10 g/dL and the ALP ([2]; Day 6) was 106.3 ± 21.40 U/L. For the same molecule, the ALT ([2]; Day 6) was 77.3 ± 16.30 U/L, the AMY ([2]; Day 6) was 932.0 ± 98.90 U/L and the BUN ([2]; Day 6) was 22.0 ± 5.40 mg/dL. For the same molecule, the CRE ([2]; Day 6) was less than 0.40 mg/dL, the “Ca^++” value ([2]; Day 6) was 9.7 ± 0.10 mg/dL and the GLOB ([2]; Day 6) was 1.2 ± 0.10 g/dL. For the same molecule, the GLU ([2]; Day 6) was 309.0 ± 45.10 mg/dL, the GRA ([2]; Day 6) was 0.4 ± 0.20 10^9/l and the “GRA (%)” value ([2]; Day 6) was 7.0 ± 3.00%. For the same molecule, the HCT ([2]; Day 6) was 43.1 ± 1.80%, the HGB ([2]; Day 6) was 14.1 ± 0.50 g/dL and the “K^+” value ([2]; Day 6) was 4.6 ± 0.20 mmol/L. For the same molecule, the LYM ([2]; Day 6) was 4.6 ± 1.40 10^9/l, the “LYM (%)” value ([2]; Day 6) was 90.0 ± 4.30% and the MCH ([2]; Day 6) was 16.0 ± 0.70 pg. The MCHC ([2]; Day 6) was 32.7 ± 2.50 g/dL, the MCV ([2]; Day 6) was 49.3 ± 4.30 fL and the MON ([2]; Day 6) was 0.2 ± 0.20 10^9/l. For the same molecule, the “MON (%)” value ([2]; Day 6) was 3.1 ± 2.00%, the MPV ([2]; Day 6) was 6.7 ± 0.40 fL and the “NA^+” value ([2]; Day 6) was 147.8 ± 2.20 mmol/L. It also gave a PCT ([2]; Day 6) of 0.4 ± 0.10%, a PDWc ([2]; Day 6) of 30.0 ± 1.50% and a PHOS ([2]; Day 6) of 9.8 ± 0.40 mg/dL. The PLT ([2]; Day 6) was 578.8 ± 86.70 10^9/l, the RBC ([2]; Day 6) was 8.8 ± 0.50 10^12/l and the RDWc ([2]; Day 6) was 17.4 ± 0.70%. The TBIL ([2]; Day 6) was 0.4 ± 0.00 mg/dL, the TP ([2]; Day 6) was 5.2 ± 0.20 g/dL and the WBC ([2]; Day 6) was 5.2 ± 1.80 10^9/l. For the same molecule, the Vd/F ([3]; plasma, plasma) was 3.19 L/kg, the Vd/F ([3]; plasma, plasma, text statement) was greater than 3 L/kg and the “mean resident times (MRT)” value [3] was “approximately one to two”. For the same molecule, the AUCINF ([3]; plasma) was 4.12 (Microgram * Hour)/mL, the AUC_%Extrap ([3]; plasma) was 4.92% and the AUClast ([3]; plasma) was 3.92 (Microgram * Hour)/mL. It also gave a CI/F ([3]; plasma) of 4.04 mL/min/kg, a Concentrationmax ([3]; plasma) of 3.38 Microgram/mL and a Lambda_z ([3]; plasma) of 0.76 h⁻¹. For the same molecule, the MRTINF ([3]; plasma) was 1.25 h, the MRTlast ([3]; plasma) was 1.03 h and the Timelast ([3]; plasma) was 4.00 h. The concentration at 4 Hour ([3]; mouse, plasma, read-out: Concentrationlast) was 150 ng/mL and the “phosphorylated ERK (T202/Y204)” value [4] was “dramatically decrease phosphorylated ERK”.
